According to patent publication US20090156646A1, “PYRIDYLPHENOL COMPOUND AND USE THEREOF” (TAKEDA PHARMACEUTICAL COMPANY LIMITED, priority 2005, published 2009):

Legend:
[1] = target: T1, human metastin receptor hOT7T175 (Homo sapiens, UniProt Q969F8, L364H); assay: binding inhibiting activity: 125I-metastin (40-54) binding to cell membrane fraction of h175 KB34 cells; details: room temperature 60 minutes, read-out: binding inhibiting activity, represented by the IC50 value
T1 construct: encoding the entire length of human metastin receptor hOT7T175; expressed in transfected cells; host or cells: CHO/dhFr- cells (ATCC #CRL-9096) stably transfected with pAKKO-hOT7T175; clone h175-16 was used as whole cells for FLIPR
T1 sequence (Q969F8 whole entry L364H): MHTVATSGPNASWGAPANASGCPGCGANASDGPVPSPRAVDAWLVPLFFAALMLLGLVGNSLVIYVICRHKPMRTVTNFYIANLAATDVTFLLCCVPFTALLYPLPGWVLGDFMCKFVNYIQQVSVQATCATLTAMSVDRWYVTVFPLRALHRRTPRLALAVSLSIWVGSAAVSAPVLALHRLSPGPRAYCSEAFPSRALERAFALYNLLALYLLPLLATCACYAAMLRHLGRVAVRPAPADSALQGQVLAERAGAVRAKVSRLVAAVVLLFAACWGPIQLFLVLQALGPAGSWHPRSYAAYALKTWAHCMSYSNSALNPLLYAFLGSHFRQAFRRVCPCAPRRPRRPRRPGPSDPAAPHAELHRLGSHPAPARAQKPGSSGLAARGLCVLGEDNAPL
Summary of the method: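 Membranes came from CHO/dhfr− cells stably expressing human hOT7T175 (clone h175 KB34) and were diluted 250-fold for use. Binding of 125I-metastin (40-54) was run in 20 mM Tris, 2.5 mM magnesium acetate and 2 mM EGTA, pH 7.4, with protease inhibitors, either without BSA or with 1 mg/ml BSA.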

melting point [°C] | IC50 [1] [µM] | Compound
201 to 203 | ≤ 10 | CCN1CCCCC1CC(=O)Nc1cccc(-c2cc(-c3ccc(F)cc3O)nc(NC(=O)c3ccco3)c2C#N)c1.Cl (stereo not shown) [Example 322, N-[3-cyano-4-(3-{[(1-ethylpiperidin-2-yl)acetyl]amino}phenyl)-6-(4-fluoro-2-hydroxyphenyl)pyridin-2-yl]-2-furamide hydrochloride]
220 to 223 | ≤ 10 | Cl.N#Cc1c(-c2cccc(NC(=O)[C@@H]3CCCC[C@@H]3N)c2)cc(-c2ccc(F)cc2O)nc1NC(=O)c1ccco1 [Example 284, N-{4-[3-({[(1R,2S)-2-aminocyclohexyl]carbonyl}amino)phenyl]-3-cyano-6-(4-fluoro-2-hydroxyphenyl)pyridin-2-yl}-2-furamide hydrochloride]
244 to 246 | ≤ 10 | COc1ccccc1C(=O)Nc1nc(-c2ccc(F)cc2O)cc(-c2cccc(C(=O)NCC(C)(C)CN)c2)c1C#N.Cl [Example 246, N-[4-(3-{[(3-amino-2,2-dimethylpropyl)amino]carbonyl}phenyl)-3-cyano-6-(4-fluoro-2-hydroxyphenyl)pyridin-2-yl]-2-methoxybenzamide hydrochloride]
210 to 217 | ≤ 10 | COc1ccccc1C(=O)Nc1nc(-c2ccc(Cl)cc2O)cc(-c2cccc(C(=O)NCC3CCCCN3)c2)c1C#N.Cl (stereo not shown) [Example 71, N-[6-(4-chloro-2-hydroxyphenyl)-3-cyano-4-(3-{[(piperidine-2-ylmethyl)amino]carbonyl}phenyl)pyridin-2-yl]-2-methoxybenzamide hydrochloride]
229 to 236 | ≤ 10 | Cl.N#Cc1c(-c2cccc(NC(=O)CN)c2)cc(-c2ccc(F)cc2O)nc1NC(=O)c1ccco1 [Example 329, N-{3-cyano-6-(4-fluoro-2-hydroxyphenyl)-4-[3-(glycylamino)phenyl]pyridin-2-yl}-2-furamide hydrochloride]
228 to 229 | ≤ 10 | Cl.N#Cc1c(-c2cccc(C(=O)NCCN)c2)cc(-c2ccc(F)cc2O)nc1NC(=O)c1cccs1 [Example 81, N-[4-(3-{[(2-aminoethyl)amino]carbonyl}phenyl)-3-cyano-6-(4-fluoro-2-hydroxyphenyl)pyridin-2-yl]thiophene-2-carboxamide hydrochloride]
254 to 256 | ≤ 10 | Cl.N#Cc1c(-c2cccc(C(=O)NC3CCNCC3)c2)cc(-c2ccccc2O)nc1NC(=O)c1cccs1 [Example 7, N-(3-cyano-6-(2-hydroxyphenyl)-4-{3-[(piperidin-4-ylamino)carbonyl]phenyl}pyridin-2-yl)thiophene-2-carboxamide hydrochloride]
173 to 174 | ≤ 10 | Cl.N#Cc1c(-c2cccc(C(=O)NCCCn3ccnc3)c2)cc(-c2ccc(F)cc2O)nc1NC(=O)c1ccco1 [Example 67, N-{3-cyano-6-(4-fluoro-2-hydroxyphenyl)-4-[3-({[3-(1H-imidazole-1-yl)propyl]amino}carbonyl)phenyl]pyridin-2-yl}-2-furamide hydrochloride]
193 to 197 | ≤ 10 | COc1ccc(C(=O)Nc2nc(-c3ccc(Cl)cc3O)cc(-c3cccc(NC(=O)CCN)c3)c2C#N)cc1.Cl [Example 252, N-[4-[3-(β-alanylamino)phenyl]-6-(4-chloro-2-hydroxyphenyl)-3-cyanopyridin-2-yl]-4-methoxybenzamide hydrochloride]
209 to 213 | ≤ 10 | CCN(CC)CCC(=O)Nc1cccc(-c2cc(-c3ccc(F)cc3O)nc(NC(=O)c3ccco3)c2C#N)c1.Cl [Example 328, N-[3-cyano-4-{3-[(N,N-diethyl-β-alanyl)amino]phenyl}-6-(4-fluoro-2-hydroxyphenyl)pyridin-2-yl]-2-furamide hydrochloride]
241 to 244 | ≤ 10 | Cl.N#Cc1c(-c2cccc(NC(=O)[C@H]3CCCN3)c2)cc(-c2ccc(F)cc2O)nc1NC(=O)c1nccs1 [Example 292, N-(3-{3-cyano-6-(4-fluoro-2-hydroxyphenyl)-2-[(1,3-thiazol-2-ylcarbonyl)amino]pyridin-4-yl}phenyl)-D-prolinamide hydrochloride]
222 to 228 | ≤ 10 | Cl.N#Cc1c(-c2cccc(NC(=O)[C@H]3CCCN3)c2)cc(-c2ccc(Cl)cc2O)nc1NC(=O)c1nccs1 [Example 294, N-(3-{6-(4-chloro-2-hydroxyphenyl)-3-cyano-2-[(1,3-thiazol-2-ylcarbonyl)amino]pyridin-4-yl}phenyl)-D-prolinamide hydrochloride]
215 to 218 | ≤ 10 | Cl.N#Cc1c(-c2cccc(C(=O)N3CCC(N)CC3)c2)cc(-c2ccccc2O)nc1NC(=O)c1cccs1 [Example 5, N-[4-{3-[(4-aminopiperidine-1-yl)carbonyl]phenyl}-3-cyano-6-(2-hydroxyphenyl)pyridin-2-yl]thiophene-2-carboxamide hydrochloride]
249 to 255 | ≤ 10 | CCNC(C)CC(=O)Nc1cccc(-c2cc(-c3ccc(F)cc3O)nc(NC(=O)c3ccco3)c2C#N)c1.Cl (stereo not shown) [Example 320, N-[3-cyano-4-(3-{[3-(ethylamino)butanoyl]amino}phenyl)-6-(4-fluoro-2-hydroxyphenyl)pyridin-2-yl]-2-furamide hydrochloride]
